Source: ChEMBL document CHEMBL3616451, “Design and synthesis of 11α-substituted bile acid derivatives as potential anti-tuberculosis agents” (Bioorg Med Chem Lett, 2015)
≈ marks a conversion by molar mass, not a printed value. Calls of active or inactive are those of the source. The rule behind the calls is not given here.

Assays:
Bacillus subtilis = assay: Antibacterial activity against Bacillus subtilis ATCC 23857 assessed as growth inhibition at 30 ug/ml relative to control; assay type: functional; conditions: for inhibition of growth at 30 µg/mL: read-out: GI
[1] = system: Mycobacterium tuberculosis; assay: Anti-tubercular activity against rifampicin, isoniazid, ethambutol and pyrazinamide-sensitive Mycobacterium tuberculosis H37Ra ATCC 25177 assessed as growth inhibition at 3 ug/ml by XRMA method relative to control; assay type: functional; conditions: for inhibition of growth at 3 µg/mL: read-out: GI
[2] = system: Mycobacterium tuberculosis; assay: Anti-tubercular activity against rifampicin, isoniazid, ethambutol and pyrazinamide-sensitive Mycobacterium tuberculosis H37Ra ATCC 25177 assessed as growth inhibition at 10 ug/ml by XRMA method relative to control; assay type: functional; conditions: for inhibition of growth at 10 µg/mL: read-out: GI
Pseudomonas fluorescens = assay: Antibacterial activity against Pseudomonas fluorescens ATCC 13525 assessed as growth inhibition at 30 ug/ml relative to control; assay type: functional; conditions: for inhibition of growth at 30 µg/mL: read-out: GI
[3] = system: Mycobacterium tuberculosis; assay: Anti-tubercular activity against rifampicin, isoniazid, ethambutol and pyrazinamide-sensitive Mycobacterium tuberculosis H37Ra ATCC 25177 assessed as growth inhibition at 30 ug/ml by XRMA method relative to control; assay type: functional; conditions: read-out: GI
Staphylococcus aureus = assay: Antibacterial activity against Staphylococcus aureus ATCC 29213 assessed as growth inhibition at 30 ug/ml relative to control; assay type: functional; conditions: for inhibition of growth at 30 µg/mL: read-out: GI
Escherichia coli = assay: Antibacterial activity against Escherichia coli […] assessed as growth inhibition at 30 ug/ml relative to control; assay type: functional; conditions: for inhibition of growth at 30 µg/mL: read-out: GI
[4] = (§1) Cytotoxicity against human A549 cells after 48 hrs by MTT assay; assay type: cell-based; conditions: A549 cells
A549 = assay: as §1; assay type: cell-based; conditions: a549, 48 h
[5] = (§2) Cytotoxicity against human THP1 cells after 48 hrs by MTT assay; assay type: cell-based, THP-1; conditions: THP-1 cells
THP-1 = assay: as §2; assay type: cell-based; conditions: thp-1, 48 h
[6] = system: Mycobacterium tuberculosis; assay: Anti-tubercular activity against rifampicin, isoniazid, ethambutol and pyrazinamide-sensitive dormant phage of Mycobacterium tuberculosis H37Ra ATCC 25177 infected in human THP1 cells by neutral red assay; assay type: functional, organism-based; conditions: H37Ra ATCC 25177, THP-1
[7] = Cytotoxicity against human PANC1 cells after 48 hrs by MTT assay; assay type: cell-based, PANC-1
[8] = system: Mycobacterium tuberculosis; assay: Anti-tubercular activity against rifampicin, isoniazid, ethambutol and pyrazinamide-sensitive active phage of Mycobacterium tuberculosis H37Ra ATCC 25177 infected in human THP1 cells by neutral red assay; assay type: functional, organism-based; conditions: H37Ra ATCC 25177, THP-1
[9] = system: Mycobacterium tuberculosis; assay: Anti-tubercular activity against rifampicin, isoniazid, ethambutol and pyrazinamide-sensitive active phage of Mycobacterium tuberculosis H37Ra ATCC 25177 by serial dilution method; assay type: functional, organism-based
[10] = system: Mycobacterium tuberculosis; assay: Anti-tubercular activity against rifampicin, isoniazid, ethambutol and pyrazinamide-sensitive dormant phage of Mycobacterium tuberculosis H37Ra ATCC 25177 by serial dilution method; assay type: functional, organism-based

Row | SMILES | inhibition of growth at 3 µg/mL [1] [%] | inhibition of growth at 10 µg/mL [2] [%] | inhibition of growth at 30 µg/mL (Pseudomonas fluorescens) [%] | inhibition of growth at 30 µg/mL [3] [%] | inhibition of growth at 30 µg/mL (Escherichia coli) [%] | growth inhibition (GI) [1] | inhibition of growth at 30 µg/mL (Bacillus subtilis) [%] | growth inhibition (GI) (Staphylococcus aureus) | other results
1 | CCOC(=O)N[C@@H]1C(=O)[C@]2(C)[C@@H]([C@H](C)CCC(=O)OC)CC[C@H]2[C@H]2[C@H]1[C@@]1(C)CC[C@@H](OC(C)=O)C[C@H]1C[C@H]2OC(C)=O | 66 | 73 | 54.5 | 86 | 46.7 |  |  |  | growth inhibition (GI) (Bacillus subtilis): inactive; inhibition of growth at 30 µg/mL (Staphylococcus aureus): 17.3%
2 | C[C@H](CCC(=O)O)[C@H]1CC[C@H]2[C@@H]3[C@H](O)C[C@@H]4C[C@H](O)CC[C@]4(C)[C@H]3C[C@H](O)[C@]12C [CHOLIC ACID] |  | 36 |  | 53 |  | inactive |  |  | 
3 | COC(=O)CC[C@@H](C)[C@H]1CC[C@H]2[C@H]3[C@H]([C@H](n4cc(-c5ccccc5)nn4)C(=O)[C@]12C)[C@@]1(C)CC[C@@H](OC(C)=O)C[C@H]1C[C@H]3OC(C)=O | 67 | 68 |  | 74 | 17.8 |  | 20 | inactive | growth inhibition (GI) (Pseudomonas fluorescens): inactive
4 | CCCCCCc1cn([C@@H]2C(=O)[C@]3(C)[C@@H]([C@H](C)CCC(=O)OC)CC[C@H]3[C@H]3[C@H]2[C@@]2(C)CC[C@@H](OC(C)=O)C[C@H]2C[C@H]3OC(C)=O)nn1 | 91 | 96 |  | 97 |  |  | 22.9 | inactive | GI50 at 48 h [4]: > 100 µg/mL; GI90 (A549): > 100 µg/mL; growth inhibition (GI) (Pseudomonas fluorescens): inactive; GI50 at 48 h [5]: > 100 µg/mL; GI90 (THP-1): > 100 µg/mL; IC50 [6]: 0.13 µg/mL (≈ 0.198 µM); IC90 [6]: 1.55 µg/mL (≈ 2.36 µM); GI50 at 48 h ([7]; PANC-1 cells): > 100 µg/mL; GI90 ([7]; panc-1, 48 h): > 100 µg/mL; IC50 [8]: 0.25 µg/mL (≈ 0.381 µM); IC90 [8]: 2.8 µg/mL (≈ 4.27 µM); IC50 [9]: 0.64 µg/mL (≈ 0.976 µM); IC90 [9]: 2.63 µg/mL (≈ 4.01 µM); growth inhibition (GI) (Escherichia coli): inactive; IC50 [10]: 0.17 µg/mL (≈ 0.259 µM); IC90 [10]: 2.43 µg/mL (≈ 3.7 µM)
5 | COC(=O)CC[C@@H](C)[C@H]1CC[C@H]2[C@H]3[C@H]([C@H](NC(=O)C4CN4)C(=O)[C@]12C)[C@@]1(C)CC[C@@H](OC(C)=O)C[C@H]1C[C@H]3OC(C)=O (stereo partly drawn) |  | 10 |  | 14 |  | inactive |  |  | 
6 | COC(=O)CC[C@@H](C)[C@H]1CC[C@H]2[C@H]3[C@H]([C@H](NC(C)C)C(=O)[C@]12C)[C@@]1(C)CC[C@@H](OC(C)=O)C[C@H]1C[C@H]3OC(C)=O | 66 | 71 | 37.2 | 84 | 31.9 |  | 4.79 |  | inhibition of growth at 30 µg/mL (Staphylococcus aureus): 16.4%
7 | COC(=O)CC[C@@H](C)[C@H]1CC[C@H]2[C@H]3[C@H]([C@H](N=[N+]=[N-])C(=O)[C@]12C)[C@@]1(C)CC[C@@H](OC(C)=O)C[C@H]1C[C@H]3OC(C)=O |  |  |  | 12 |  | inactive |  |  | growth inhibition (GI) [2]: inactive
8 | COC(=O)CC[C@@H](C)[C@H]1CC[C@H]2[C@H]3[C@H]([C@H](n4cc(-c5ccc(F)cc5)nn4)C(=O)[C@]12C)[C@@]1(C)CC[C@@H](OC(C)=O)C[C@H]1C[C@H]3OC(C)=O | 71 | 75 | 23.2 | 79 | 43.8 |  | 20 | inactive | 
